Here are results for 20 compounds from patent US12679822B2, “Alkenyl pyrimidine compound, preparation method therefor, and application thereof” (Hongyun Biotech Co., Ltd., priority 2020, dated 2026).

Common to all, as to format: cell-based
Test [1] has as its target BaF3 cell lines stably transfected with kinase EGFR Del/T790M/C797S (Homo sapiens, UniProt P00533, T790M/C797S, cells depend on it, form not given). The test can be described thus: Growth inhibition of BaF3 cell line stably transfected with kinase EGFR Del/T790M/C797S (MTS). The following applies: 48 h, read-out: growth inhibitory activity IC50, Del/T790M/C797S. The procedure:
(§1) Biological Activity Assay: Growth Inhibitory Activity of Compounds on Cell Lines Stably Transfected with Kinase
(§2) The activity of compounds against various mutants of kinase EGFR was evaluated by their effect of inhibiting growth of BaF3 cell lines stably transfected with kinase. The specific test method was given as follows:
(§3) 1) Culture medium: DMEM (Dulbecco's modified eagle medium) or RPMI 1640 (containing 10% fetal bovine serum, 100 μg/mL ampicillin, 100 μg/mL streptomycin).
(§4) 2) Reagent: MTS reaction solution (containing 2 mg/mL of MTS [3-(4,5-di methylthiazol-2-yl)-5-(3-carboxymethoxyphenyl)-2-(4-sulfophenyl)-2H-tetrazolium, inner Salt]; 100 μg/mL of PES (phenazine […])).
(§5) 3) Compound test: cells were incubated into a 96-well culture plate, the volume of cytosol was 90 μL, and then 10 μL of the compound at each gradient concentration was added. That is, the highest concentration was 10 μM, which was diluted stepwise by ⅓, and 8 concentration points were set in total; 0.1% DMSO (dimethyl sulfoxide) was contained in the system. The cell plate with uniformly mixed compound was cultured in a cell culture incubator (37° C.; 5% […]) for 48 h, then 20 μL of MTS reaction solution was added, uniformly mixed and incubated in the cell culture incubator (37° C.; 5% CO2) for 1-4 h; OD values at 490 nm were measured by a microplate reader (VARIOSKAN FLASH, Thermo). Two parallels were set in each group of experiments, with 0.1% (a final concentration) DMSO as a negative control, and a culture medium without cells and compounds as a blank control. The cell growth inhibition rate was calculated by the following formula: Cell growth inhibition rate %=1−(ODexperimental group−ODblank group)/(ODnegative group−ODblank group)×100%.
(§6) 4) IC50 calculation: The semi-inhibitory concentration of the compounds acting on cells was calculated using GradPad Prism 5 software according to the measured cell growth inhibition rate.

In test [2] the target is BaF3 cell lines stably transfected with kinase EGFR L858R (Homo sapiens, UniProt P00533, L858R, cells depend on it). The test can be described thus: Growth inhibition of BaF3 cell line stably transfected with kinase EGFR L858R (MTS). The following applies: 48 h, read-out: growth inhibitory activity IC50, L858R. As to the method: as §1, §2, §3, §4, §5, §6
The target of test [3] is BaF3 cell lines stably transfected with kinase EGFR L858R/T790M (Homo sapiens, UniProt P00533, T790M/L858R, cells depend on it). The test is described as follows: Growth inhibition of BaF3 cell line stably transfected with kinase EGFR L858R/T790M (MTS). The following applies: 48 h, read-out: growth inhibitory activity IC50, L858R/T790M. The procedure: as §1, §2, §3, §4, §5, §6

The target in test [4] is BaF3 cell lines stably transfected with kinase EGFR L858R/T790M/C797S (Homo sapiens, UniProt P00533, T790M/C797S/L858R, cells depend on it). The test can be described thus: Growth inhibition of BaF3 cell line stably transfected with kinase EGFR L858R/T790M/C797S (MTS). The following applies: 48 h, read-out: growth inhibitory activity IC50, L858R/T790M/C797S. As to the method:
as §1, §2, §3, §4, §5, §6

The target in test [5] is BaF3 cell lines stably transfected with kinase EGFR Del/T790M (Homo sapiens, UniProt P00533, T790M, cells depend on it, form not given). The test is described as follows: Growth inhibition of BaF3 cell line stably transfected with kinase EGFR Del/T790M (MTS). The following applies: 48 h, read-out: growth inhibitory activity IC50, Del/T790M. The procedure: as §1, §2, §3, §4, §5, §6

Test [6] has as its target BaF3 cell lines stably transfected with kinase EGFR Del (Homo sapiens, UniProt P00533, cells depend on it, form not given). The test can be described thus: Growth inhibition of BaF3 cell line stably transfected with kinase EGFR Del (MTS). The following applies: 48 h, read-out: growth inhibitory activity IC50, Del. As to the method: as §1, §2, §3, §4, §5, §6

SMILES strings stand for the structures.

Sequence of BaF3 cell lines stably transfected with kinase EGFR L858R/T790M/C797S (P00533 whole entry T790M/C797S/L858R): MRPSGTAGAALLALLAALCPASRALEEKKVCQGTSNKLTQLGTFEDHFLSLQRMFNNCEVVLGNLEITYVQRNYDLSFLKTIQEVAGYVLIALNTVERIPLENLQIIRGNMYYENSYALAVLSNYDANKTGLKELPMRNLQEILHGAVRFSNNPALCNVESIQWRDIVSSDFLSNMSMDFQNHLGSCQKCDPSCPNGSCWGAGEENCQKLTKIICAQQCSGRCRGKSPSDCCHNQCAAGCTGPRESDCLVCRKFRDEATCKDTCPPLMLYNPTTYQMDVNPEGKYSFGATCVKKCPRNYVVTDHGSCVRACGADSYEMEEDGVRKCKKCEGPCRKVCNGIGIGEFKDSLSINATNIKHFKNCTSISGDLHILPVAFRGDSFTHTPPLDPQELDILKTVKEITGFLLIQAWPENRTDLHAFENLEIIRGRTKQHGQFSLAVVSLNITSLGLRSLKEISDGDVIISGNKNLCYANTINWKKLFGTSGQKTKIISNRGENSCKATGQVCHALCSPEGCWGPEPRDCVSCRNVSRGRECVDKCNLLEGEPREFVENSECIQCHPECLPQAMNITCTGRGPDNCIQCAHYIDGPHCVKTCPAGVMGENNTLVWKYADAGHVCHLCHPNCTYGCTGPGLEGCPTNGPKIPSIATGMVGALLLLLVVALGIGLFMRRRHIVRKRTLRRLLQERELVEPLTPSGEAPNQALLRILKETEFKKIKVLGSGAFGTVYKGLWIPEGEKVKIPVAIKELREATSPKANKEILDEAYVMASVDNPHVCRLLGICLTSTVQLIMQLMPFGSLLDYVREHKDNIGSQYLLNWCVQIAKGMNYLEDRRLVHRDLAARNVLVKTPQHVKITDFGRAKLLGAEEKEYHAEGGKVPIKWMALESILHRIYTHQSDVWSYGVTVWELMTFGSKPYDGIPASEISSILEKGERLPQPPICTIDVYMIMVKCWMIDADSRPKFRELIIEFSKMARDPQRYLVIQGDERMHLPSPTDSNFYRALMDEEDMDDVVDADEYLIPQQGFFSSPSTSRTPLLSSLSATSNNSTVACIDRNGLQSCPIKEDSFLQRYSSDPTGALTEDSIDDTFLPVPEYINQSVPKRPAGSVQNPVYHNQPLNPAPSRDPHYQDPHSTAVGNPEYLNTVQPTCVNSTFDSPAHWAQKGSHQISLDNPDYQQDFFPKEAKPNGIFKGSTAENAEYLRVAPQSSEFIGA
Sequence of BaF3 cell lines stably transfected with kinase EGFR Del (P00533 with tags, fused parts or gaps DEL746-750): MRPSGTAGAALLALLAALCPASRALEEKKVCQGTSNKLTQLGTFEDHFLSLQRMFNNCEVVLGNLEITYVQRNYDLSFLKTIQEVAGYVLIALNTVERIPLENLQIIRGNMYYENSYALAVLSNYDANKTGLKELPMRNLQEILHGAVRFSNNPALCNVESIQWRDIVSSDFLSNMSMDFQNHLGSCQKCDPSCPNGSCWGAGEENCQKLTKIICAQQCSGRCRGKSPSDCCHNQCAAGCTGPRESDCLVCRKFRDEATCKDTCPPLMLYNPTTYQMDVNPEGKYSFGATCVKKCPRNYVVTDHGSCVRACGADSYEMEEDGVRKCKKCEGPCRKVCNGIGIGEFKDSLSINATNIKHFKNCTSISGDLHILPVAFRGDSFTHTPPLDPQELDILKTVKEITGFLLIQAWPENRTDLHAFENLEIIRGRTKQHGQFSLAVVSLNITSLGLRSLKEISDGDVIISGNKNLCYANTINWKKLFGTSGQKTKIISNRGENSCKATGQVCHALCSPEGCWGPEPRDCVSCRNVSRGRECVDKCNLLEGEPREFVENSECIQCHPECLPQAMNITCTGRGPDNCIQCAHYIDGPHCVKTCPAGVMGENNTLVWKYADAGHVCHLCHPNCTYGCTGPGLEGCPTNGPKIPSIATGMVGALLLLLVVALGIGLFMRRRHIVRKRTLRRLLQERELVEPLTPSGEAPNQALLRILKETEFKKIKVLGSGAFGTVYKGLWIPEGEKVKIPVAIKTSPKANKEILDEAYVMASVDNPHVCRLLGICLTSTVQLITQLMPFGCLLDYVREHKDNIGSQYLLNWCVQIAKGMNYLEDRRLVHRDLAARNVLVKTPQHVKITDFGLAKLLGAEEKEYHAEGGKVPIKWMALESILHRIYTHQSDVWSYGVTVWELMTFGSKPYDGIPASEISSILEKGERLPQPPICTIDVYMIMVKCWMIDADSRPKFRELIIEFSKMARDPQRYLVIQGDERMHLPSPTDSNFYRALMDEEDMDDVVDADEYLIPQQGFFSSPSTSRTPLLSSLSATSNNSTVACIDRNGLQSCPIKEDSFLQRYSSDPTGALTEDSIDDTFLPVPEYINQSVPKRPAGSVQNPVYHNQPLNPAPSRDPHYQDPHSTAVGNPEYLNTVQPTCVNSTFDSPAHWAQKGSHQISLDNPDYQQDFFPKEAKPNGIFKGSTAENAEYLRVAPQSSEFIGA
Sequence of BaF3 cell lines stably transfected with kinase EGFR L858R (P00533 whole entry L858R): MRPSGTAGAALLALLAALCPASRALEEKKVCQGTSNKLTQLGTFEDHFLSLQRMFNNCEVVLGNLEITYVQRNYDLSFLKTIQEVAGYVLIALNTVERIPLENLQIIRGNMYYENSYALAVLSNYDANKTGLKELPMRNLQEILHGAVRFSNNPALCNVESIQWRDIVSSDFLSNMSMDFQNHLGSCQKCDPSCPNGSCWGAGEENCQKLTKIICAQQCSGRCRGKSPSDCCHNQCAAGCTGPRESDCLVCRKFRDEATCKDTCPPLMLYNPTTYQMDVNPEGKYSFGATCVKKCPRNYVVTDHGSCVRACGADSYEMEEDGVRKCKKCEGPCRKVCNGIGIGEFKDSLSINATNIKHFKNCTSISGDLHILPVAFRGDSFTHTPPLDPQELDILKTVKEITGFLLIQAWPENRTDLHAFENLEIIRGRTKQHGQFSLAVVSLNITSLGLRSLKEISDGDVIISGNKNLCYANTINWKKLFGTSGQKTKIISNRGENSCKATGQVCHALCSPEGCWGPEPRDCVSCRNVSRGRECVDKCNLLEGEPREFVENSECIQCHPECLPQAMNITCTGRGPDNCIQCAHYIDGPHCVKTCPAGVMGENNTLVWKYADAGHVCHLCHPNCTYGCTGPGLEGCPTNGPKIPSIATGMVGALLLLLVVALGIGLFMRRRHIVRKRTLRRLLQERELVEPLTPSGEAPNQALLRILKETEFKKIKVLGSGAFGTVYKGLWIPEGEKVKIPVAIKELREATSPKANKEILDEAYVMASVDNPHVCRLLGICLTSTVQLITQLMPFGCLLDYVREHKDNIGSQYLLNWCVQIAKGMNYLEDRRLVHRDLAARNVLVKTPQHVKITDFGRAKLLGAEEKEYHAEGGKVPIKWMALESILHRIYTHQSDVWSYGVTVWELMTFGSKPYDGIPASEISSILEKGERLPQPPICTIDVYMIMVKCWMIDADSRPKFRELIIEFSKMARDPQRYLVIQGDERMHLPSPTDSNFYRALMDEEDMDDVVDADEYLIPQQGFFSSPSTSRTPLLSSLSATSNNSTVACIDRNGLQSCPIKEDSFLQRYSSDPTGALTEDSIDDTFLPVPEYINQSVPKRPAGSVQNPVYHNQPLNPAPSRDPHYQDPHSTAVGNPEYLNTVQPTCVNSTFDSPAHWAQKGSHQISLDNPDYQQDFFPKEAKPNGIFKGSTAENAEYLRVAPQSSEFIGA
Sequence of BaF3 cell lines stably transfected with kinase EGFR L858R/T790M (P00533 whole entry T790M/L858R): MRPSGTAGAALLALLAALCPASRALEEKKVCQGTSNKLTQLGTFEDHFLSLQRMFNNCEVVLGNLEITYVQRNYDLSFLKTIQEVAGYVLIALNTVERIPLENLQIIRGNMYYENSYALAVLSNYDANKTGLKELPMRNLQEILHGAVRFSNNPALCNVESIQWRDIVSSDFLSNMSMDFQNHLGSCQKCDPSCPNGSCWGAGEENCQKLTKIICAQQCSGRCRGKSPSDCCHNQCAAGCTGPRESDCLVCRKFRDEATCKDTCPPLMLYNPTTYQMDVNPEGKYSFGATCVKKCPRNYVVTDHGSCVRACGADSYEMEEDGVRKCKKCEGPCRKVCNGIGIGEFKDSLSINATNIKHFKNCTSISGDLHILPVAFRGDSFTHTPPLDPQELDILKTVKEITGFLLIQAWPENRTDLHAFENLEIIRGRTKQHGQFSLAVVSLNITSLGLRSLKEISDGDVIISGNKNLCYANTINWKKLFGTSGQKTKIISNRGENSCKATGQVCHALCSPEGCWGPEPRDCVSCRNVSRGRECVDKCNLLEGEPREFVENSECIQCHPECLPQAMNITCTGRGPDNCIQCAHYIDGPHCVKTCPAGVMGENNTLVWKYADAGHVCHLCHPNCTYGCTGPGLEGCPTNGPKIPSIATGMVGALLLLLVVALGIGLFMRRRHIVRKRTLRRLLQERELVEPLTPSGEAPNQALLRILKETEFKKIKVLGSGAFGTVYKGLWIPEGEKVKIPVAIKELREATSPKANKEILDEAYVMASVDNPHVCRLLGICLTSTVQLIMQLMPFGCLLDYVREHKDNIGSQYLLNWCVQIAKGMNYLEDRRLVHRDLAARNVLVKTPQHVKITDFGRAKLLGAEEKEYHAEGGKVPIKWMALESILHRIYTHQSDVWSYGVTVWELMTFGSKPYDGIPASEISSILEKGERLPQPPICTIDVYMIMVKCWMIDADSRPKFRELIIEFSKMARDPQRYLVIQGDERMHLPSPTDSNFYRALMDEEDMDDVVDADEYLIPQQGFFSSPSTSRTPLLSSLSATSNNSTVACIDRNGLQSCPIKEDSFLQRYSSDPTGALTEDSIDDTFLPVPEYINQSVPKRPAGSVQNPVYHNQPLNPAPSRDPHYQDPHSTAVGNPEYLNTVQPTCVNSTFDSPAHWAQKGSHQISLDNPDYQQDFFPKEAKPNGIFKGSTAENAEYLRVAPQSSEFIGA

For `C=C(C)c1cnc(Nc2ccc(N3CCC(N4CCN(C)CC4)CC3)c(CC)c2)nc1Nc1ccc2nccnc2c1N(C)S(C)(=O)=O` [II-24], the GI50 in test [1] is 50 to 500 nM; in test [2], at most 50 nM; in test [3] it was at most 50 nM; in test [4], 50 to 500 nM; in test [5] it was at most 50 nM; in test [6], at most 50 nM.
For `CCc1cc(Nc2ncc(C=C(C)C)c(Nc3ccc4nccnc4c3N(C)S(C)(=O)=O)n2)c(OC)cc1N1CCC(N2CCN(C)CC2)CC1` [II-26], the GI50 in test [1] is 500 to 2500 nM; in test [2] it was 50 to 500 nM; in test [3], 500 to 2500 nM; in test [4] it was 500 to 2500 nM; in test [5], 500 to 2500 nM; in test [6] it was at most 50 nM.
Regarding `CCc1cc(Nc2ncc(C3=CCCC3)c(Nc3ccc4nccnc4c3N(C)S(C)(=O)=O)n2)c(OC)cc1N1CCC(N2CCN(C)CC2)CC1` [II-27], the GI50 in test [1] is 500 to 2500 nM; in test [2], 50 to 500 nM; in test [3], 500 to 2500 nM; in test [4] it was 500 to 2500 nM; in test [5], 500 to 2500 nM; in test [6] it was at most 50 nM.
For `CCc1cc(Nc2ncc(/C=C/C3CC3)c(Nc3ccc4nccnc4c3N(C)S(C)(=O)=O)n2)c(OC)cc1N1CCC(N2CCN(C)CC2)CC1` [II-28], the GI50 in test [1] is 500 to 2500 nM; in test [2], 50 to 500 nM; in test [3], 500 to 2500 nM; in test [4], 500 to 2500 nM; in test [5], 500 to 2500 nM; in test [6], at most 50 nM.
Turning to `CCc1cc(Nc2ncc(/C=C/c3ccccc3)c(Nc3ccc4nccnc4c3N(C)S(C)(=O)=O)n2)c(OC)cc1N1CCC(N2CCN(C)CC2)CC1` [II-29], the GI50 in test [1] was in the range of 500 to 2500 nM; in test [2] it was 50 to 500 nM; in test [3], 500 to 2500 nM; in test [4], 500 to 2500 nM; in test [5] it was 500 to 2500 nM; in test [6], 50 to 500 nM.
`C=Cc1cnc(Nc2cc(C)c(N3CCC(N4CCN(C)CC4)CC3)cc2OC)nc1Nc1ccc2nccnc2c1NS(C)(=O)=O` [II-31]: the GI50 is 50 to 500 nM in test [1]; at most 50 nM in test [2]; 50 to 500 nM in test [3]; at most 50 nM in test [4]; at most 50 nM in test [5]; at most 50 nM in test [6].
As to `C=Cc1cnc(Nc2cc(CC)c(N3CCC(N4CCN(C)CC4)CC3)cc2OC)nc1Nc1ccc2nccnc2c1NS(C)(=O)=O` [II-32], the GI50 in test [1] is 50 to 500 nM; in test [2], at most 50 nM; in test [3] it was 50 to 500 nM; in test [4] it was 50 to 500 nM; in test [5], at most 50 nM; in test [6], at most 50 nM.
Regarding `C=Cc1cnc(Nc2cc(CC)c(N3CCC(N4CCN(C)CC4)CC3)nc2OC)nc1Nc1ccc2nccnc2c1NS(C)(=O)=O` [II-33], the GI50 is 50 to 500 nM in test [1]; at most 50 nM in test [2]; 50 to 500 nM in test [3]; 50 to 500 nM in test [4]; 50 to 500 nM in test [5]; at most 50 nM in test [6].
Consider `C=Cc1cnc(Nc2cc(CC)c(N3CCC(N4CCN(C)CC4)CC3)cc2OC(F)(F)F)nc1Nc1ccc2nccnc2c1NS(C)(=O)=O` [II-34], for which the GI50 in test [1], in test [2], in test [3], in test [4], in test [5] and in test [6] was 50 to 500 nM throughout.
Regarding `C=Cc1cnc(Nc2cc(C(C)C)c(N3CCC(N4CCN(C)CC4)CC3)cc2OC)nc1Nc1ccc2nccnc2c1NS(C)(=O)=O` [II-35], the GI50 in test [1] was 500 to 2500 nM; in test [2] it was 50 to 500 nM; in test [3], 500 to 2500 nM; in test [4], 50 to 500 nM; in test [5], 50 to 500 nM; in test [6], 50 to 500 nM.
Consider `C=Cc1cnc(Nc2cc(C3CC3)c(N3CCC(N4CCN(C)CC4)CC3)cc2OC)nc1Nc1ccc2nccnc2c1NS(C)(=O)=O` [II-36], for which the GI50 was 50 to 500 nM in test [1]; at most 50 nM in test [2]; 50 to 500 nM in test [3]; at most 50 nM in test [4]; at most 50 nM in test [5]; at most 50 nM in test [6].
As for `C=Cc1cnc(Nc2cc(CC3CC3)c(N3CCC(N4CCN(C)CC4)CC3)cc2OC)nc1Nc1ccc2nccnc2c1NS(C)(=O)=O` [II-37], the GI50 in test [1] was 50 to 500 nM; in test [2] it was at most 50 nM; in test [3], 50 to 500 nM; in test [4] it was at most 50 nM; in test [5], at most 50 nM; in test [6] it was at most 50 nM.
As for `C=Cc1cnc(Nc2ccc(N3CCC(N4CCN(C)CC4)CC3)c(CC)c2)nc1Nc1ccc2nccnc2c1NS(C)(=O)=O` [II-38], the GI50 in test [1] is 50 to 500 nM; in test [2] it was at most 50 nM; in test [3], at most 50 nM; in test [4], at most 50 nM; in test [5], at most 50 nM; in test [6] it was at most 50 nM.
In the case of `C=Cc1cnc(Nc2cc(CC)c(N3CCC(N(C)C)CC3)cc2OC)nc1Nc1ccc2nccnc2c1NS(C)(=O)=O` [II-39], the GI50 in test [1], in test [2], in test [3], in test [4], in test [5] and in test [6] was at most 50 nM throughout.
Turning to `C=Cc1cnc(Nc2cc(CC)c(N3CCC(N(C)C)C3)cc2OC)nc1Nc1ccc2nccnc2c1NS(C)(=O)=O` (stereo not drawn) [II-40], the GI50 in test [1] was at most 50 nM; in test [2] it was at most 50 nM; in test [3], 50 to 500 nM; in test [4], at most 50 nM; in test [5] it was at most 50 nM; in test [6], at most 50 nM.
Regarding `C=Cc1cnc(Nc2cc(CC)c(N3CCN(C)CC3)cc2OC)nc1Nc1ccc2nccnc2c1NS(C)(=O)=O` [II-41], the GI50 in test [1] was at most 50 nM; in test [2], at most 50 nM; in test [3], 50 to 500 nM; in test [4], at most 50 nM; in test [5], at most 50 nM; in test [6], at most 50 nM.
In the case of `C=Cc1cnc(Nc2ccc(N3CCC(N4CCN(C)CC4)CC3)cc2OC)nc1Nc1ccc2nccnc2c1NS(=O)(=O)C(C)C` [II-42], the GI50 was in the range of 500 to 2500 nM in test [1]; 500 to 2500 nM in test [2]; 500 to 2500 nM in test [3]; 50 to 500 nM in test [4]; 500 to 2500 nM in test [5]; 500 to 2500 nM in test [6].
Regarding `C=Cc1cnc(Nc2cc(C)c(N3CCC(N4CCN(C)CC4)CC3)cc2OC)nc1Nc1ccc2nccnc2c1NS(=O)(=O)C(C)C` [II-43], the GI50 in test [1] is 50 to 500 nM; in test [2], 50 to 500 nM; in test [3], 500 to 2500 nM; in test [4] it was 50 to 500 nM; in test [5], 50 to 500 nM; in test [6], 50 to 500 nM.
`C=Cc1cnc(Nc2cc(CC)c(N3CCC(N4CCN(C)CC4)CC3)cc2OC)nc1Nc1ccc2nccnc2c1NS(=O)(=O)C(C)C` [II-44]: the GI50 was 50 to 500 nM in test [1]; 50 to 500 nM in test [2]; 500 to 2500 nM in test [3]; at most 50 nM in test [4]; 50 to 500 nM in test [5]; 50 to 500 nM in test [6].
`C=Cc1cnc(Nc2ccc(N3CCC(N4CCN(C)CC4)CC3)c(F)c2F)nc1Nc1ccc2nccnc2c1NS(C)(=O)=O` [II-45]: the GI50 in test [1] fell in the range of 500 to 2500 nM; in test [2] it was 50 to 500 nM; in test [3] it was 50 to 500 nM; in test [4] it was 500 to 2500 nM; in test [5], 50 to 500 nM; in test [6], 50 to 500 nM.
